Like-named read-outs stand apart in the source and are kept apart here.
Legend:
[1] = test system: Abeta oligomer-induced membrane trafficking deficits; experiment: Membrane trafficking/exocytosis (MTT) assay in mature primary hippocampal neurons; format: cell-based, rat; conditions: for Functional Neuronal Phenotype: Table 10B
Description: The present exocytosis assay was adapted for use with mature primary neuronal cultures grown for 3 weeks in vitro.
The methods used to generate the results were as follows in the Membrane Trafficking/Exocytosis (MTT) assay.
Primary hippocampal neurons from E18 Sprague-Dawley rat embryos were plated at optimized concentrations in 384 well plates in NB media (Invitrogen). Neurons were maintained in cultures for 3 weeks, with twice weekly feeding of NB media with N2 supplement (Invitrogen).
[…] MTT reagent (3-(4,5-dimethylthizaol-2yl)-2,5diphenyl tetrazolium bromide) (Roche Molecular Biochemicals) was reconstituted in phosphate buffered saline to 5 mg/mL. 10 μL of MTT labeling reagent is added to each well and incubated at 37° C. for 1 h, then imaged. Exocytosis was assessed by automated microscopy and image processing to quantify the amount of endocytosed and exocytosed formazan.
Each assay plate was formatted so that compounds are tested with and without Abeta oligomer on each plate.

[2] = test system: Abeta oligomer-induced synapse loss; experiment: Synapse loss assay (synaptophysin puncta) in primary neurons; format: cell-based, rat; conditions: for Block synapse loss: Table 10B; for Abeta oligomer-induced synapse loss: in words
Description: In this assay, Abeta oligomers were brought in contact with mature primary neurons in culture and their binding was determined by immunohistochemistry (anti-Abeta antibody) and quantified by image processing. The amount of Abeta in neuronal dendrites is assessed by counting the number of labeled puncta on the neuritis. […] This labeling is associated with synapses, co-localizing with the post-synaptic scaffold protein PSD-95 (Lacor et al., '04). […] The number of synapses can also be quantified in this assay by immunofluorochemistry. Similar procedures for binding assays can be found in the literature. […] Review.
Primary hippocampal neuronal culture was established as in the membrane trafficking assay above. […] Pretreatment with compounds to be tested lasted for 1 hr and addition of Abeta oligomers or no oligomer (vehicle alone) in a final concentration of 70 ul was followed by incubation for an additional 23 hrs.
The plates were then washed 3× with PBS for 5 min each. The plates were blocked at RT for 1 hr in 5% goat serum and 0.5% Triton X-100 in PBS. […] Primary antibodies were incubated overnight at 4° C. The plates were then washed 3× with PBS for 5 min each. […] Secondary antibodies were incubated at RT for 1 hr. The plates were washed once with PBS. DAPI (4′,6-diamidino-2-phenylindole, Invitrogen) was then applied at 0.03 ug/ul and incubated at RT for 5 min, then washed with PBS.
Images were captured and analyzed with the Cellomics VTI automated microscope platform, using the Neuronal Profiling algorithm. For statistical analysis, a Tukey-Kramer pair-wise comparison with unequal variance was used.

[3] = test system: SKOV-3 human ovarian cancer cell line; experiment: MTS tumor cell viability assay; format: cell-based; conditions: for Action: agonist/antagonist call relative to siramesine; for IC50: Tumor cell viability, 48 hrs
Description: The cytotoxicity of compounds shown below was determined using the CellTiter96 Aqueous One Solution Assay (Promega, Madison, Wis.). […] The plate was read at 490 nm in a Victor3 plate reader (PerkinElmer Life and Analytical Sciences, Shelton, Conn.). The EC^50 value, defined as the concentration of the sigma ligand required to inhibit cell viability by 50% relative to untreated cells, was determined from the dose response curve for each cell line.

[4] = test system: caspase-3 activity in SKOV-3 human ovarian cancer cells; experiment: Caspase-3 activity assay in tumor cells; format: cell-based
[5] = test system: caspase-3 activity in neurons; experiment: Caspase-3 activity assay in neurons; format: cell-based
Description: The activation of endogenous caspase-3 by sigma-2 receptor ligands was measured using the Caspase-3 Colorimetric Activity Assay Kit (Milipore, Billerica, Mass.) according to the manufacture's protocol. Briefly, MDA-MB 435 or MDA-MB23I cells were plated at 0.5×10^6 cells 100 mm dish. 24 hours after plating, sigma-2 ligands were added to the culture dishes to induce caspase 3 activation. The final concentration of the sigma-2 ligand was its EC50. 24 hours after treatment, cells were harvested, lysed in 300 uL of Cell Lysis Buffer, and centrifuged for 5 minutes at 10,000×g. Supernatant was collected and incubated with caspase-3 substrate, DEVD-pNA, for 2 hours at 37° C. […] Compounds IXa,IXb and II behaved like sigma-2 […] in both cancer cells and neurons.

neuronal cultures [6] = test system: neuronal cultures
neuronal cultures [7] = experiment: Nuclear intensity / morphology in neuronal cultures; conditions: 24 hours
sigma-2 receptor = experiment: Autoradiography, displacement of [3H]-RHM-1 in brain sections; format: binding; conditions: 1 μM; monkey frontal cortex, monkey hippocampus, human temporal cortex
Description: Brain sections in 20 μM thickness from rats, rhesus monkeys and postmortem human brains were cut using with a Microm cryotome and mounted on superfrost plus glass slides (Fisher Scientific, Pittsburgh, Pa.)., and serial sections through the brain regions of cerebral cortex and hippocampus were used in this study.
Slides were dried and made conductive by coating with a copper foil tape on the free side and then placed in the gas chamber [mixture of argon and triethylamine (Sigma-Aldrich, USA)] of a gaseous detector, the Beta Imager 2000Z Digital Beta Imaging System (Biospace, France). […] [^3H]Microscale (American Radiolabeled Chemicals, Inc., St. Louis, Mo.) was counted at the same time as a reference for total radioactivity quantitative analysis, i.e., to convert the cpm/mm2 to nCi/mg tissue. Quantitative analysis was performed with the program Beta-Image Plus (BioSpace, France) for the anatomical regions of interest (ROI), i.e., to obtain the quantitative radioactivity uptake (cpm/nlln2) in the regions of cortex and hippocampus. The binding density was normalized to fmol/mg tissue based on the specific activities of the corresponding radioligands and calibration curve from the standard [^3H]Microscale.

## COc1cc(CCC(C)NCc2ccc(C(F)(F)F)cc2)ccc1O (single isomer, unassigned; (+)) [(+) enantiomer of Cpd II]
[1]
  Functional Neuronal Phenotype: Antagonist
[1]; dose response of % vesicles against Abeta oligomer concentration, 0 uM of enantiomer (Abeta oligomer alone), read-out: EC50 against Abeta at Concentration 0 uM
  EC50: 1.19 µM
[1]; read-out: EC50 against Abeta at Concentration 20 uM, dose response of % vesicles against Abeta oligomer concentration, 20 uM of enantiomer
  EC50: 1.46 µM
[2]; listed as II (+) isomer
  Block synapse loss: 47%

## COc1cc(CCC(C)NCc2ccc(C(F)(F)F)cc2)ccc1O (single isomer, unassigned; (-)) [(−) enantiomer of Cpd II]
[1]; Rattus norvegicus, Hippocampal neuron, Table 4, read-out: EC50 in screening assay using single concentration of Abeta oligomer
  EC50: 10.9 µM
[1]; Rattus norvegicus, Hippocampal neuron, dose response of % vesicles against Abeta oligomer concentration, 0 uM of enantiomer (Abeta oligomer alone), read-out: EC50 against Abeta at Concentration 0 uM
  EC50: 1.05 µM
[1]; Rattus norvegicus, Hippocampal neuron, read-out: EC50 against Abeta at Concentration 20 uM, dose response of % vesicles against Abeta oligomer concentration, 20 uM of enantiomer
  EC50: 2.82 µM
[1]
  Functional Neuronal Phenotype: Antagonist
[2]; listed as II (−) isomer
  Block synapse loss: 0%

## CCCN(CCC)CCc1ccc(OC)c(OCCc2ccccc2)c1 [NE-100, reference compound]
[2]
  Abeta oligomer-induced synapse loss: completely eliminated synapse loss

## COc1cc2c(cc1OC)CN(CCCCNC(=O)c1cc(C)ccc1OC)CC2 [RHM-1, N-[4-(3,4-dihydro-6,7-dimethoxyisoquinolin-2(1H)-yl)butyl]-2-methoxy-5-methylbenzamide]
[3]
  Action: Antagonist
[4]
  Block of caspase-3 activation caused by sigma-2 receptor agonist SV-119: do not block caspase-3 activation
  Induction of caspase-3 activity: did not induce caspase-3 activity
[5]
  Induction of caspase-3 activity: did not induce caspase-3 activity
Neuronal cultures [6]
  Nuclear morphology / nuclear intensity compared to vehicle: did not decrease nuclear intensity

## COc1ccc(C)cc1NC(=O)OC1CC2CCCC(C1)N2CCCCCCN (stereo not drawn) [SV-119]
[3]
  IC50: 21.7 ± 2.9 µM
  Action: Full agonist
[4]
  Induction of caspase-3 activity: activate caspase-3
[5]
  Induction of caspase-3 activity: activate caspase-3
Neuronal cultures [7]
  Nuclear morphology / nuclear intensity compared to vehicle: caused significant abnormal nuclear morphology

## Fc1ccc(-n2cc(CCCCN3CCC4(CC3)OCc3ccccc34)c3ccccc32)cc1 [Siramesine]
sigma-2 receptor
  Displacement of 18.4 nM [3H]-RHM-1: partially displace
[3]
  Action: Full agonist
[4]
  Induction of caspase-3 activity: induced caspase-3 activity
[5]
  Induction of caspase-3 activity: induced
Neuronal cultures [7]
  Nuclear morphology / nuclear intensity compared to vehicle: caused significant abnormal nuclear morphology

## COc1ccc(C)cc1NC(=O)OC1CC2CCCC(C1)N2Cc1ccc(N(C)C)cc1 (stereo not drawn) [WC-26]
[3]
  IC50: 65.6 ± 6.3 µM
  Action: Partial agonist
Neuronal cultures [7]
  Nuclear morphology / nuclear intensity compared to vehicle: caused significant abnormal nuclear morphology

## O=C(CCCN1CCC(O)(c2ccc(Cl)cc2)CC1)c1ccc(F)cc1 [haloperidol, reference compound]
[2]
  Abeta oligomer-induced synapse loss: completely eliminated synapse loss

## synthetic Abeta oligomer: Abeta 1-42 oligomers made according to published methods [reference compound]
[1]; synthetic Abeta oligomer alone, read-out: EC50 of Abeta oligomer in membrane trafficking assay
  EC50: 0.82 µM

— patent US20170197977A9, “COMPOSITIONS AND METHODS FOR TREATING NEURODEGENERATIVE DISEASE” (COGNITION THERAPEUTICS, INC., priority 2011, published 2017)
